Assay results from paper PMC11944515, “Host-Mediated Antimicrobial Effects and NLRP3 Inflammasome Modulation by Caulerpin and Its Derivatives in Macrophage Models of Mycobacterial Infections” (Microorganisms, 2025).

What was measured:
RAW 264.7 cells = assay: Direct effects on RAW 264.7 cell viability (MTT); format: cell-based, murine
Procedure: The direct effects of CP and its analogues on RAW 264.7 viability were evaluated using the MTT method. RAW 264.7 cells were seeded at 1 × 10^4 cells/well (for 24 h incubation) and 5 × 10^3 cells/well (for 48 h incubation) and incubated overnight to allow adhesion. The culture medium was carefully aspirated and replaced with 100 μL DMEM plus 100 μL of test compound solutions, yielding final concentrations ranging from 3.25 to 30 µM (DMSO 1%, v/v). After 24 or 48 h of exposure to test compounds, cells were incubated with MTT (0.5 mg/mL) for 3 h. The resulting formazan crystals were dried, dissolved in DMSO, and absorbance was measured at 570 nm using a microplate reader (EL800, BioTek, Winooski, VT, USA). The precipitated purple formazan crystals were directly proportional to the number of metabolically active viable cells. The cell viability was then calculated as: Cell viability (%) = (Sample absorbance/Control absorbance) × 100. Data were expressed as mean of cell viability ± standard error of the mean from three to four independent experiments performed in triplicate.

[1] = tested on: M. smegmatis within RAW 264.7 macrophages; assay: Therapeutic potential in M. smegmatis-infected RAW 264.7 cells (CFU); format: cell-based, Mycobacterium smegmatis; conditions: 15, 7.5 and 3.25 µM, 24 h
Procedure: For the first in vitro infection test with M. smegmatis, RAW 264.7 were seeded in 96-well culture plates at a density of 1 × 10^4 cells/well in DMEM medium (with 10% FBS, without antibiotics) and incubated overnight at 37 °C with 5% CO2 [20]. Infection of RAW 264.7 cells with M. smegmatis mc^2155 was performed at a multiplicity of infection of 1:1 for 2 h at 37 °C with 5% CO2. The medium with non-internalized bacteria was removed, and infected cells were then treated with the tested substances in DMEM: CP (15 µM, 7.5 µM and 3.25 µM), CA (30 µM, 15 µM, 7.5 µM and 3.25 µM), DE (15 µM, 7.5 µM and 3.25 µM), and DP (15 µM, 7.5 µM and 3.25 µM). Macrophages were lysed after 24 h with 0.1% Triton–X100, and these suspensions were diluted and plated on LB. CFU was determined after incubation of plates for 3 days at 37 °C. CFU numbers were expressed as log (CFU/well).

[2] = tested on: Mycobacterium smegmatis mc2155; assay: M. smegmatis susceptibility by CFU enumeration; format: cell-based
M. tuberculosis H37Ra = assay: M. tuberculosis susceptibility by CFU enumeration; format: cell-based, Mycobacterium tuberculosis; conditions: 0.03 μM, 48 h of treatment, positive control
Procedure: Next, CP, CA, and DE were diluted in Middlebrook 7H9 plus 10% OADC for the cellular susceptibility assay with M. tuberculosis H37Ra to yield concentrations up to 15 µM, 30 µM, and 15 µM, respectively. RIF at 0.03 µM was used as a positive control. The final DMSO concentration in all wells was 2.5%. The M. tuberculosis suspension was diluted in 7H9 plus 10% OADC to achieve an optical density of 0.006 at 595 nm, and 100 μL was then added to each well. Plates were covered, sealed with parafilm, and incubated at 37 °C for 48 h. After incubation, aliquots were removed, diluted, and plated in Middlebrook 7H10 agar plus 10% OADC. Plates were incubated at 37 °C for 4 weeks, and CFU were counted. CFU numbers were expressed as log10(CFU/mL).

In the case of `CC(C)COC(=O)/C1=C/c2c([nH]c3ccccc23)/C(C(=O)OCC(C)C)=C\c2c1[nH]c1ccccc21` [Diisobutyl, (6E,13E)-diisobutyl 5,12-dihydrocycloocta[1,2-b:5,6-b′]diindole-6,13-dicarboxylate], the “effect on RAW 264.7 cell viability” value (RAW 264.7 cells; 24 h incubation, 3.25 to 30 µM) was “affected cell viability at the three highest concentrations assessed”.
In the case of `CCCCCOC(=O)/C1=C/c2c([nH]c3ccccc23)/C(C(=O)OCCCCC)=C\c2c1[nH]c1ccccc21` [diamyl, (6E,13E)-dipentyl 5,12-dihydrocycloocta[1,2-b:5,6-b′]diindole-6,13-dicarboxylate], the “effect on RAW 264.7 cell viability” value (RAW 264.7 cells; 24 h incubation, 3.25 to 30 µM) was “affected cell viability at all concentrations assessed”.
With `CCCOC(=O)/C1=C/c2c([nH]c3ccccc23)/C(C(=O)OCCC)=C\c2c1[nH]c1ccccc21` [DP, (6E,13E)-dipropyl 5,12-dihydrocycloocta[1,2-b:5,6-b′]diindole-6,13-dicarboxylate] the “effect on intracellular M. smegmatis growth in RAW 264.7” value [1] was “no inhibitory effect”, the “effect on RAW 264.7 cell viability” value (RAW 264.7 cells; 24 h incubation, 3.25 to 30 µM) was “did not affect viability at any of the concentrations tested” and the “effect on RAW 264.7 cell viability” value (RAW 264.7 cells; 48 h incubation) was “did not affect cell viability at any concentration evaluated”. For the same molecule, the “reduction of M. smegmatis viability” value ([2]; 30 μM, 24 h incubation) was 0.639 log10 CFU.
In the case of `CO[C@H]1/C=C/O[C@@]2(C)Oc3c(C)c(O)c4c(O)c(c(/C=N/N5CCN(C)CC5)c(O)c4c3C2=O)NC(=O)/C(C)=C\C=C\[C@H](C)[C@H](O)[C@@H](C)[C@@H](O)[C@@H](C)[C@H](OC(C)=O)[C@@H]1C` [RIF, Rifampicin, reference compound], the “reduction of M. tuberculosis bacterial burden” value (M. tuberculosis H37Ra) was 0.362 log10 CFU/mL and the “reduction of M. smegmatis CFU count” value ([2]; 31 μM, 24 h of incubation, positive control) was 3.41 log10.
